Results: patent US20100016358A1, “GAMMA-GLOBIN INDUCER” (KOWA CO., LTD., priority 2006, published 2010)
Counter-ions that a name gives are not always drawn.

Legend:
Format in all cases: cell-based, human
K562 cells [1] = experiment: Measurement of the amount of hemoglobin produced by K562 cells (porphyrin fluorescence); conditions: for hemoglobin production promoting action: FIG. 1
Method: Compound 1 was synthesized through a method disclosed in International publication WO 03/02703 (Example 13) and dissolved in dimethyl sulfoxide (DMSO). The concentration of the solution was adjusted as appropriate through dilution. An equiamount of DMSO was employed as a control solution.
Cells of human proerythroblast cell line K562 (obtained from ATCC) were added to a complete culture medium (RPMI-1640 medium containing 10% fetal bovine serum), and the resultant cells (1×10^5 cells/mL) were seeded into each well of 24-well plate (2 mL/well). A solution of compound 1 (×1000) was added to the plate (2 μL/well), and cells were cultured in a CO2 incubator (37° C., 5% CO2) for three days. The medium was renewed, and cells were further cultured for three days.
The cultured cells were collected and counted. The number of cells in each sample was adjusted to 3×10^5, and the intensity of the fluorescence attributed to a porphyrin ring was measured, to thereby determine the hemoglobin level. Specifically, cells collected through centrifugation were suspended in 2M oxalic acid (500 μL), and the suspension was boiled for 30 minutes and cooled. Fluorescence intensity was measured by means of a fluorescence microplate reader (Spectra MAX Gemini EM, product of Molecular Device) ([…]).

[2] = tested on: γ-globin mRNA in K562 cells; experiment: γ-globin mRNA level in K562 cells by real-time PCR (TaqMan); conditions: 0.3-μM-added group, cultured three days
Method: K562 cells (1×10^5 cells/mL) were seeded into each well of 6-well plate (4 mL/well). A solution of compound 1 (×1000) was added to the plate (4 μL/well), and cells were cultured in a CO2 incubator (37° C., 5% CO2) for three days. The cultured cells were collected, and RNA was prepared from the cells by means of a RNeasy mini column (product of Qiagen). Subsequently, cDNA was synthesized from the thus-obtained RNA by use of reverse transcriptase. Through real-time PCR employing a TaqMan probe according to a protocol of Applied Bio-Systems, γ-globin mRNA level was determined (ABI PRISM7900HT System, product of Applied Bio-Systems). In Example 2, the following primers and probe were employed (SEQ ID NOs: 1 to 3): […]
forward primer (GGTTCTTTGACAGCTTTG, SEQ ID NO: 1);
reverse primer (CCTTCTTGCCATGTGCCTT, SEQ ID NO: 2); and
fluorescence probe (CCTCTGCCTCTGCCATC, SEQ ID NO: 3).
These primers and probe are custom synthesis products of Qiagen.

K562 cells [3] = experiment: HbF-producing cells (F cells) in K562 cell population by flow cytometry with FITC-labeled anti-HbF antibody; conditions: 0.1-μM compound, cultured three days
Method: K562 cells (1×10^5 cells/mL) were seeded into each well of 24-well plate (2 mL/well). A solution of compound 1 (×1000) was added to the plate (2 μL/well), and cells were cultured in a CO2 incubator (37° C., 5% CO2) for three days. The cultured cells were collected through centrifugation and treated for 10 minutes with phosphate buffered saline (PBS) containing 0.05% glutaraldehyde/0.1% bovine serum albumin (BSA). The liquid was removed from the mixture through centrifugation, to thereby obtain pellets. Subsequently, 0.1% BSA/PBS was added to the separated pellets, and the same treatment was performed three times, to thereby wash the cells. The thus-washed cells were subjected, for five minutes, to permeation treatment with 0.1% BSA/PBS containing 1% Triton X-100 (0.5 mL) and washed once again. The resultant cells were suspended in 0.1% BSA/PBS (80 μL). FITC-labeled anti-HbF antibody (10 μg/mL, product of Caltag) (5 μL) was added to the suspension, and the mixture was allowed to react at room temperature in the dark for 15 minutes, whereby HbF present in the cells was immunostained. In a similar manner as described above, the stained cells were washed and suspended in 0.1% BSA/PBS containing 1% formaldehyde (0.5 mL). The suspension was analyzed through a method known in the art, by means of a flow cytometer (EPICS XL, product of Beckman Coulter, Inc.).

Compound: COc1ccc(N(Cc2cncc(-c3cc(OC)c(OC)c(OC)c3)c2)C2CCN(Cc3ccnc(-c4cc(OC)c(OC)c(OC)c4)c3)CC2)cc1 [compound 1, 4-[N-(4-Methoxyphenyl)-N-[[5-(3,4,5-trimethoxyphenyl)pyridin-3-yl]methyl]amino]-1-[[2-(3,4,5-trimethoxyphenyl)pyridin-4-yl]methyl]piperidine]
- amount of hemoglobin produced (compound-non-added group = 100%) (K562 cells [1]; 0.3-μM-added group, cultured 3 + 3 days): 435%
- hemoglobin production promoting action (K562 cells [1]): promotes production of hemoglobin in a concentration (dose)-dependent manner
- amount of γ-globin mRNA produced (compound-non-added group = 1) [2]: about four fold
- number of HbF-expressing cells (F cells) (K562 cells [3]): almost doubled

Compound: COc1cc(C(=O)OCCCN2CCCN(CCCOC(=O)c3cc(OC)c(OC)c(OC)c3)CC2)cc(OC)c1OC [dilazep hydrochloride, Dilazep hydrochloride, reference compound]
- hemoglobin production promoting action (K562 cells [1]): did not exhibit hemoglobin production promoting action
